Laboratory results published in ChEMBL document CHEMBL1909046, “DrugMatrix in vitro pharmacology data”.

Assays:
[1] = DRUGMATRIX: Purinergic P2X radioligand binding (ligand: [3H] alpha, beta-Methylene-ATP); type: cell membranes, Oryctolagus cuniculus, New Zealand albino, Urinary bladder, Membrane; conditions: Not Active = under 50% inhibition at 10 µM
[2] = DRUGMATRIX: Nicotinic Acetylcholine radioligand binding (ligand: [125I] Epibatidine); type: cell membranes, Membrane; conditions: imr-32; Not Active = under 50% inhibition at 10 µM
[3] = molecular target: T1, Muscarinic acetylcholine receptor M5 (Homo sapiens, UniProt P08912); type: cell membranes, CHO-K1, Membrane; further: in other assays of this panel Not Active means under 50% inhibition at 10 µM
T1 sequence (P08912 whole entry): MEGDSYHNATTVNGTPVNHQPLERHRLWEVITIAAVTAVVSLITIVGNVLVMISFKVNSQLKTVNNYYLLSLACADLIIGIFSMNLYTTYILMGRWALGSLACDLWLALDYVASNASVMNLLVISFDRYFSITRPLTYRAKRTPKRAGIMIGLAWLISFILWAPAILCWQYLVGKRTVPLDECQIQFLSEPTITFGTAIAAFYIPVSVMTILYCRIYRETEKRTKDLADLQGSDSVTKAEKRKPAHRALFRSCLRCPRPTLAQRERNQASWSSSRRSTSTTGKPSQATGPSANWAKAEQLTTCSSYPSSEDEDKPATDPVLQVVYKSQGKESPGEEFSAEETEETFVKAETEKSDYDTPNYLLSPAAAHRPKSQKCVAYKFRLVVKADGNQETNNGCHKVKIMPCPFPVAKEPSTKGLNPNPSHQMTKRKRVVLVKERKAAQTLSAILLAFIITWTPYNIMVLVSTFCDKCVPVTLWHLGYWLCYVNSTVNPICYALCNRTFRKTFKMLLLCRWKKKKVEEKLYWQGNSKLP

[4] = molecular target: T2, Amine oxidase [flavin-containing] A (Homo sapiens, UniProt P21397); assay: DRUGMATRIX: Monoamine Oxidase MAO-A enzyme inhibition (substrate: Kynuramine); parameters: species or system BTI-TN-5B1-4; conditions: bti-tn-5b1-4; Not Active = under 50% inhibition at 10 µM
T2 sequence (P21397 whole entry): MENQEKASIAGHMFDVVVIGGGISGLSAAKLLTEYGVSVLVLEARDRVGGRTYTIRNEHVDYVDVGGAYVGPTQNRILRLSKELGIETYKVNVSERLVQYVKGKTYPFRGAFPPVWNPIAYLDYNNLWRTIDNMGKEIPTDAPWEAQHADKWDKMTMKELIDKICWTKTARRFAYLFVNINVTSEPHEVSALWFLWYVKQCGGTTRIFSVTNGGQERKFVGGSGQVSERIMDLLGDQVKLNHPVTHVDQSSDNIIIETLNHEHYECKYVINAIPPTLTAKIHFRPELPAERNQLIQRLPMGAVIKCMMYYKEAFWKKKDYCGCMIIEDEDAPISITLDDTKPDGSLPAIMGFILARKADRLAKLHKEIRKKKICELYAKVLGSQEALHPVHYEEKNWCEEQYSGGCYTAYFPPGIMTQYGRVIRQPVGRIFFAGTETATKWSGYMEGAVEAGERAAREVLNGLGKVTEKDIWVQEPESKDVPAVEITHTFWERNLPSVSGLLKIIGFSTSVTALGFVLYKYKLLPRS

[5] = molecular target: Mitogen-activated protein kinase 14 (Homo sapiens, UniProt Q16539); parameters: species or system Escherichia coli;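 further: inhibition of p38alpha enzyme activity in a biochemical kinase assay, with myelin basic protein serving as substrate; in other assays of this panel Not Active means under 50% inhibition at 10 µM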
Chain of Mitogen-activated protein kinase 14 (Q16539 whole entry): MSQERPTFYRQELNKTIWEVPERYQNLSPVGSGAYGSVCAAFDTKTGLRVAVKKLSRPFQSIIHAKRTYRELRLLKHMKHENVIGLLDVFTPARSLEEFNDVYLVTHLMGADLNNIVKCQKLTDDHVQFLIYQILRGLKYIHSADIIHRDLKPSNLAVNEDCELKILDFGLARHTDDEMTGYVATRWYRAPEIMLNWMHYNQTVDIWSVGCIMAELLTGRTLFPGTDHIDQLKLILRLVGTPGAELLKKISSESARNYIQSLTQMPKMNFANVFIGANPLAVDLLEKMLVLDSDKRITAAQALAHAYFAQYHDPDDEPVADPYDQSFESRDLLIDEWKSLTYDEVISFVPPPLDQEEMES

[6] = DRUGMATRIX: beta-Lactamase enzyme inhibition (substrate: Nitrocefin); parameters: species or system Bacillus cereus; conditions: Not Active = under 50% inhibition at 10 µM
[7] = molecular target: T3, Substance-K receptor (Homo sapiens, UniProt P21452); type: cell membranes, CHO, Membrane; further: in other assays of this panel Not Active means under 50% inhibition at 10 µM
T3 sequence (P21452 whole entry): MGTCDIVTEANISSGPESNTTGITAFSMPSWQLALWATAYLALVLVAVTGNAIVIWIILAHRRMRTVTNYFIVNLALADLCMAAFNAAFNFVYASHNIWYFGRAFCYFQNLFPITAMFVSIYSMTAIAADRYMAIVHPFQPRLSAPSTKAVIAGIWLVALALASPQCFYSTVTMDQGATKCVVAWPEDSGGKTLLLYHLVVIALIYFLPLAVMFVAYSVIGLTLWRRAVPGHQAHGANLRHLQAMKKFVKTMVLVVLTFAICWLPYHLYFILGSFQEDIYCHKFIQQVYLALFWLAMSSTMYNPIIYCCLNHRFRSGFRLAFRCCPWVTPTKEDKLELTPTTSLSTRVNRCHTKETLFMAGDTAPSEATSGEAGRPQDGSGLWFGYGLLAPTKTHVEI

For `C[C@]12CC[C@@H]3c4ccc(O)cc4CC[C@H]3[C@@H]1CC[C@@H]2O` [ESTRADIOL], the IC50 [1] was “Not Active”, the Ki [1] was “Not Active” and the IC50 [2] was “Not Active”. The Ki [2] was “Not Active”, the IC50 ([3]; cho-k1) was “Not Active” and the IC50 [4] was “Not Active”. For the same compound, the IC50 [5] was “Not Active”, the IC50 [6] was “Not Active” and the Ki [6] was “Not Active”. The IC50 ([7]; cho) was “Not Active”.

For `CC[C@@H](CO)NCCN[C@@H](CC)CO` [ETHAMBUTOL], the IC50 [1] was “Not Active”, the Ki [1] was “Not Active” and the IC50 [2] was “Not Active”. For the same compound, the Ki [2] was “Not Active”, the IC50 ([3]; cho-k1) was “Not Active” and the IC50 [4] was “Not Active”. The IC50 [5] was “Not Active”, the IC50 [6] was “Not Active” and the Ki [6] was “Not Active”. The IC50 ([7]; cho) was “Not Active”.

For `CC1(C)O[C@@H]2C[C@H]3[C@@H]4C[C@H](F)C5=CC(=O)C=C[C@]5(C)[C@H]4[C@@H](O)C[C@]3(C)[C@]2(C(=O)CO)O1` [FLUNISOLIDE], the IC50 [1] was “Not Active”, the Ki [1] was “Not Active” and the IC50 [2] was “Not Active”. For the same compound, the Ki [2] was “Not Active”, the IC50 ([3]; cho-k1) was “Not Active” and the IC50 [4] was “Not Active”. The IC50 [5] was “Not Active”, the IC50 [6] was “Not Active” and the Ki [6] was “Not Active”. The IC50 ([7]; cho) was “Not Active”.

In the case of `CC1(C)O[C@@H]2C[C@H]3[C@@H]4C[C@H](F)C5=CC(=O)C=C[C@]5(C)[C@@]4(F)[C@@H](O)C[C@]3(C)[C@]2(C(=O)CO)O1` [FLUOCINOLONE ACETONIDE], the IC50 [1] is reported as “Not Active”, the Ki [1] is reported as “Not Active” and the IC50 [2] is reported as “Not Active”. For the same compound, the Ki [2] was “Not Active”, the IC50 ([3]; cho-k1) was “Not Active” and the IC50 [4] was “Not Active”. The IC50 [5] was “Not Active”, the IC50 [6] was “Not Active” and the Ki [6] was “Not Active”. For the same compound, the IC50 ([7]; cho) was “Not Active”.

In the case of `CC1(C)O[C@@H]2C[C@H]3[C@@H]4C[C@H](F)C5=CC(=O)CC[C@]5(C)[C@H]4[C@@H](O)C[C@]3(C)[C@]2(C(=O)CO)O1` [FLURANDRENOLIDE], the IC50 [1] is reported as “Not Active”, the Ki [1] is reported as “Not Active” and the IC50 [2] is reported as “Not Active”. For the same compound, the Ki [2] was “Not Active”, the IC50 ([3]; cho-k1) was “Not Active” and the IC50 [4] was “Not Active”. For the same compound, the IC50 [5] was “Not Active”, the IC50 [6] was “Not Active” and the Ki [6] was “Not Active”. The IC50 ([7]; cho) was “Not Active”.

For `CN(C)c1ccc(C(=C2C=CC(=[N+](C)C)C=C2)c2ccc(N(C)C)cc2)cc1.[Cl-]` [GENTIAN VIOLET], the IC50 [1] was “Not Active”, the Ki [1] was “Not Active” and the IC50 [2] was “Not Active”. The Ki [2] was “Not Active”, the IC50 ([3]; read-out: IC50) was 535 nM and the Ki ([3]; read-out: Ki) was 384 nM. For the same compound, the IC50 [4] was “Not Active”, the IC50 [5] was “Not Active” and the IC50 [6] was “Not Active”. The Ki [6] was “Not Active”, the IC50 ([7]; read-out: IC50) was 1680 nM and the Ki ([7]; read-out: Ki) was 560 nM.

With `Cc1ccc(S(=O)(=O)NC(=O)NN2CC3CCCC3C2)cc1` (configuration not stated) [GLICLAZIDE] the IC50 [1] was “Not Active”, the Ki [1] was “Not Active” and the IC50 [2] was “Not Active”. The Ki [2] was “Not Active”, the IC50 ([3]; cho-k1) was “Not Active” and the IC50 [4] was “Not Active”. The IC50 [5] was “Not Active”, the IC50 [6] was “Not Active” and the Ki [6] was “Not Active”. For the same compound, the IC50 ([7]; cho) was “Not Active”.

With `NC(=O)NO` [HYDROXYUREA] the IC50 [1] was “Not Active”, the Ki [1] was “Not Active” and the IC50 [2] was “Not Active”. The Ki [2] was “Not Active”, the IC50 ([3]; cho-k1) was “Not Active” and the IC50 [4] was “Not Active”. The IC50 [5] was “Not Active”, the IC50 [6] was “Not Active” and the Ki [6] was “Not Active”. For the same compound, the IC50 ([7]; cho) was “Not Active”.

With `CC(C)Cc1ccc(C(C)C(=O)O)cc1` (configuration not stated) [IBUPROFEN] the IC50 [1] was “Not Active”, the Ki [1] was “Not Active” and the IC50 [2] was “Not Active”. The Ki [2] was “Not Active”, the IC50 ([3]; cho-k1) was “Not Active” and the IC50 [4] was “Not Active”. The IC50 [5] was “Not Active”, the IC50 [6] was “Not Active” and the Ki [6] was “Not Active”. The IC50 ([7]; cho) was “Not Active”.

With `COc1ccc2c(c1)c(CC(=O)O)c(C)n2C(=O)c1ccc(Cl)cc1` [INDOMETHACIN] the IC50 [1] was “Not Active”, the Ki [1] was “Not Active” and the IC50 [2] was “Not Active”. The Ki [2] was “Not Active”, the IC50 ([3]; cho-k1) was “Not Active” and the IC50 [4] was “Not Active”. For the same compound, the IC50 [5] was “Not Active”, the IC50 [6] was “Not Active” and the Ki [6] was “Not Active”. For the same compound, the IC50 ([7]; cho) was “Not Active”.

In the case of `CCc1c2c(nc3ccc(OC(=O)N4CCC(N5CCCCC5)CC4)cc13)-c1cc3c(c(=O)n1C2)COC(=O)[C@]3(O)CC` [IRINOTECAN], the IC50 [1] is reported as “Not Active”, the Ki [1] is reported as “Not Active” and the IC50 [2] is reported as “Not Active”. For the same compound, the Ki [2] was “Not Active”, the IC50 ([3]; cho-k1) was “Not Active” and the IC50 [4] was “Not Active”. The IC50 [5] was “Not Active”, the IC50 [6] was “Not Active” and the Ki [6] was “Not Active”. The IC50 ([7]; cho) was “Not Active”.
